Where a name gives a salt, the structure may show the parent alone. Read-outs that look alike come from different tables or passages of the source. Where a SMILES comes first, the peptide text is derived from it. [ ]: non-standard residue; d: D form.
How the values were obtained:
[1] = tested on: C57 male mice; assay: Example G: effect of stereoisomerism on survival rate of mice under 7.5Gy irradiation; type: in vivo; conditions: 200 mg/kg IP 30 min before irradiation; for deaths: 9 mice per group
Text: Laboratory animals: C57 male mice, 19-21 g, purchased from Beijing HFK Bioscience Co. Ltd., license number SCXK (Beijing), 9 mice in each group.

[2] = tested on: C57 male mice; conditions: for Survival number/Test number / Survival rate: 7.2Gy, 200 mpk IP, day 30; for survival rates compared with amifostine: absorbed dose 6.8Gy and 7.2Gy;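 for all read-outs here: mice aged 8-10 weeks, weighing 20-22 g, with deaths logged and survival rate computed on day 30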
Protocol: Laboratory animals: C57 male mice, 8-10 weeks old, 20-22 g, were divided into 4 groups, 5 or 10 or 15 or 20 or 25 mice in each group.
Observation index: The death and weight of the mice were recorded, and the survival rate was calculated on the 30th day.

Row | SMILES | Survival number/Test number [1] | deaths [1] | Survival number/Test number [2] | Survival rate [2] | survival rates compared with amifostine [2] | Survival rate [1]
1 | N[C@H](CS)C(=O)O [D-Cys, D-cysteine, reference compound] | 0/9 | (9 deaths) |  |  |  | 
2 | NC(=O)[C@H](CS)NC(=O)[C@H](CS)NC(=O)[C@@H](N)CS [Example 3, (R)-2-amino-N—((R)-1-(((R)-1-amino-3-mercapto-1-oxopropan-2-yl)amino)-3-mercapto-1-oxopropan-2-yl)-3-mercaptopropanamide trifluoroacetate] (H-Cys-Cys-Cys-NH2) | 2/9 | (7 deaths) | 10/15 | 66.67% | survival rates comparable to those using amifostine | approximately 22%
3 | CNC(=O)C(CS)NC(=O)C(CS)NC (racemic) [Example 19, 3-mercapto-N-(3-mercapto-1-(methylamino)-1-oxopropan-2-yl)-2-(methylamino) propionamide trifluoroacetate] | 2/9 | (7 deaths) |  |  |  | 
4 | CNC(=O)[C@H](CS)NC(=O)[C@H](CS)NC [Example 2, (R)-3-mercapto-N—((R)-3-mercapto-1-(methylamino)-1-oxopropan-2-yl)-2-(methylamino) propionamide trifluoroacetate] | 4/9 | (5 deaths) | 10/15 | 66.67% | survival rates comparable to those using amifostine | approximately 44%
5 | N[C@@H](CS)C(=O)O [L-Cys, L-cysteine, reference compound] | 1/9 | (8 deaths) |  |  |  | 
6 | CNC(=O)C(CS)NC(=O)C(CS)NC(=O)C(CS)NC (racemic) [Example 20, (RS)-3-mercapto-N—((RS)-3-mercapto-1-(((RS)-3-mercapto-1-(methylamino)-1-oxopropan-2-yl)amino)-1-oxopropan-2-yl)-2-(methylamino) propanamide trifluoroacetate] | 1/9 | (8 deaths) |  |  |  | 
7 | CNC(=O)[C@@H](CS)NC(=O)[C@@H](CS)NC(=O)[C@@H](CS)NC [Example 8, (S)-3-mercapto-N—((S)-3-mercapto-1-(((S)-3-mercapto-1-(methylamino)-1-oxopropan-2-yl)amino)-1-oxopropan-2-yl)-2-(methylamino) propanamide] |  |  | 1/5 | 20% | survival rates comparable to those using amifostine | 
8 | NC(=O)[C@@H](CS)NC(=O)[C@@H](N)CS [Example 18, (R)-2-amino-N—((S)-1-amino-3-mercapto-1-oxopropan-2-yl)-3-mercaptopropanamide trifluoroacetate] (H-Cys-[dC]-NH2) |  |  | 4/5 | 80% | survival rates comparable to those using amifostine | 

Reference: patent US11008286B2, “Amino mercaptan compound and preparation method therefor and use thereof in protection against radiation” (Institute of Radiation Medicine Chinese Academy of Medical …, priority 2016, dated 2021)
